Assay results taken from patent US12655101B2, “Small molecules with antibacterial activity” (NEW MEXICO TECH UNIVERSITY RESEARCH PARK CORPORATION, priority 2021, dated 2026).

What was measured:
Assay type in all cases: cell-based
red blood cells = experiment: Red blood cell lysis capacity
Experimental: Diluted red blood cells were aliquoted into clear tissue culture media−/+addition of 40% human serum and added either 2 μL or 40 μL of cell lysis buffer (LB), 50 μM, 40 μM, 20 μM, 15 μM, 10 μM, or 5 μM Compound 14. The samples were agitated by vortex and spun by centrifuge.

[1] = system: A. baumannii ATCC BAA-1797; experiment: DNA degradation (agarose gel), drug-resistant strain; details: drug-resistant ATCC BAA-1797; 10 μg/mL ciprofloxacin, 100 μM Compound 25; 5 hours
[2] = system: A. baumannii ATCC BAA-1797 in a culture of HeLa cells; experiment: Selective killing of A. baumannii in a culture of HeLa cells; details: 60 μM Compound 26
Experimental: In a separate experiment, the ability of […] to selectively kill A. baumannii ATCC BAA-1797 in a culture of HeLa cells in 40% FBS was studied. Cells were trypsinized, counted (cells/mL) using a hemocytometer, and plated (2×10^5 HeLa cells/100 μL) in tissue culture-treated 24-well plate in DMEM+1% penicillin/streptomycin (P/S)+10% FBS. Cells were adhered overnight at 37° C. in a humidified incubator with 5% CO2. Media was replaced the following day with DMEM+40% or 50% FBS. Selected wells were treated with 60 μM Compound 26, which included HeLa only and HeLa plus 10,000 A. baumannii ATCC BAA-1797—that had been previously grown in MHB for 12 hours in 37° C.—in the appropriate wells. Cells were incubated further for 18 hours at 37° C. 20% v/v MTT reagent (5 mg/mL stock) was added, and the samples were incubated for 10 minutes to observe viable bacteria. Plates were counted after a visual viability assessment.
Cells were trypsinized, counted (cells/mL) using a hemocytometer, and plated (2×10^5 HeLa cells/100 μL) in tissue culture-treated 24-well plate in DMEM+1% penicillin/streptomycin (P/S)+10% FBS. Cells were adhered overnight at 37° C. in a humidified incubator with 5% CO2. Media was replaced the following day with DMEM+40% or 50% FBS. […] Plates were counted after visual viability assessment.

SMILES: Nc1cccc2[nH]cc(/C=N/Nc3ccc(Cl)cc3)c12 [Compound 14, (E)-3-((2-(4-chlorophenyl)hydrazineylidene)methyl)-1H-indol-4-amine]
- red blood cell lysis (red blood cells; 40% additional human serum, 50 μM Compound 14): did not lyse cells
- red blood cell lysis (red blood cells; no additional serum, 40 μM Compound 14): lysed some red blood cells

SMILES: Brc1ccc(N/N=C/c2c[nH]c3cccc(OCc4ccccc4)c23)cc1.Cl [Compound 25, (E)-2-((4-(benzyloxy)-1H-indol-3-yl)methylene)-1-(4-bromophenyl)hydrazin-1-ium chloride]
- ds DNA damage [1]: Neither Ciprofloxacin Nor Compound 25 Caused ds DNA Damage

SMILES: Cl.Clc1ccc(N/N=C/c2c[nH]c3cccc(OCc4ccccc4)c23)cc1 [Compound 26, (E)-2-((4-(benzyloxy)-1H-indol-3-yl)methylene)-1-(4-chlorophenyl)hydrazin-1-ium]
- kill of A. baumannii ATCC BAA-1797 in HeLa co-culture ([2]; 40% FBS and 50% FBS): 4 logs
- selective eradication of A. baumannii from HeLa cells ([2]; 18 hours, 40% or 50% FBS): selectively eradicated A. baumannii ATCC BAA-1797 from HeLa cells, leaving HeLa cells unharmed
